Read-outs that look alike come from different tables or passages of the source.
Assays:
in vivo [1] = type: in vivo; settings: rat, in vivo, po; read-out: LD 50 (Litchfield and Wilcoxon)
Rat = assay: in vivo; type: in vivo
in vivo [2] = settings: rat, in vivo, po; for mortality at 120 h: read-out: % of dead animals; for mortality: read-out: % of dead animals per day
Excerpt: (§1) Five days subacute toxicity in rats per os
(§2) Animals: 5 female rats for each group, average body weight: 150g.

rats [3] = assay: in vivo; settings: 5 days, rats, per os
Excerpt: as §1, §2

rats [4] = type: in vivo, rat; settings: for Average number of lesions per animal / Gastrolesive effect, relative potency to naproxen / Gastrolesive effect, relative potency to piroxicam: single oral administration, male rats
Method: The test was modified by increasing the fast period to 70 hours and giving the total dose of substance in one single oral administration.
Animals: 10 male rats for each group, average body weight: 150g.

pyresis = assay: Antipyretic activity according to Burn et al.; type: in vivo, rat; settings: for Reduction of the pyresis at hour 4: female rats
Excerpt: Animals: 6 female rats for each group, average body weight 200 g.

phenylquinone writhes = assay: Analgesic activity according to Hendershot et al., phenylquinone writhes, modified; type: in vivo, mouse
Method: Analgesic activity according to HENDERSHOT et al., Jour. Pharm.
The test was modified by numbering the writhes only along the time interval from 5 to 15 minutes since the injection of phenylquinone. The injection was made 2 hours after the oral administration of the compound to be tested.
Animals: 8 female mice for each group, average body weight: 25g

carrageenin paw edema = assay: Antiinflammatory activity according to Winter et al., carrageenin paw edema, modified; type: in vivo, rat
Method: Antiinflammatory activity according to WINTER et al., Proc. Soc. Exp. Biol. Med.; 111, 544; 1962.
The test was modified in that the injection of carrageenin and the administration of the compound by gastric gavage were carried out simultaneously and the paw edema was measured at the plethysmograph after 4 hours.
Animals: 6 female rats for each group, average body weight: 150g

in vivo [5] = settings: mouse, po
[6] = 100 mg/kg (maximum tested dose)
[7] = 50 mg/g (so in the source) per os
[8] = 100 mg/g (so in the source) per os
[9] = Mus musculus, 50 mg/kg oral, 2 h before phenylquinone, 5-15 min, female mice
[10] = Mus musculus, 100 mg/kg oral, 2 h before phenylquinone, 5-15 min, female mice
[11] = Rattus norvegicus, po, 4 h, 50 mg/kg per os, female rats, read-out: % inhibition of the edema after 4 hours
[12] = Rattus norvegicus, po, 4 h, 100 mg/kg per os, female rats, read-out: % inhibition of the edema after 4 hours

## CN1c2c(C(=O)NCCCNC3CCCCC3)nn(-c3ccccc3)c2-c2ccccc2S1(=O)=O [Compound I-4]
In vivo [1]
  LD50: 1090 mg/kg
Rat; in vivo
  LD 50, relative ratio to piroxicam: 4.0
In vivo [2]; 100 mg/kg/day
  mortality at 120 h: 0%
  mortality: 0%
In vivo [2]; 200 mg/kg/day
  mortality at 120 h: 20%
  mortality: 4%
Rats [3]
  Subacute toxicity, relative ratio to naproxen: 2
  Subacute toxicity, relative ratio to piroxicam: 5
Rats [4]; [6]
  Average number of lesions per animal: 0
Rats [4]
  Gastrolesive effect, relative potency to naproxen: > 20
  Gastrolesive effect, relative potency to piroxicam: 100
pyresis; [7]
  Antipyretic relative potency to naproxen: 1.2
  Antipyretic relative potency to piroxicam: 1.6
  Reduction of the pyresis at hour 4: 1.40 °C
pyresis; [8]
  Antipyretic relative potency to naproxen: 1.3
  Antipyretic relative potency to piroxicam: 1.7
  Reduction of the pyresis at hour 4: 1.47 °C
Phenylquinone writhes; 50 mg/kg oral
  Analgesic relative potency to naproxen: 1.3
  Analgesic relative potency to piroxicam: 0.9
Phenylquinone writhes; 100 mg/kg oral
  Analgesic relative potency to naproxen: 1.8
  Analgesic relative potency to piroxicam: 1.3
Phenylquinone writhes; [9]
  inhibition in vivo at 50 mg/kg: 42%
Phenylquinone writhes; [10]
  inhibition in vivo at 100 mg/kg: 59%
Carrageenin paw edema; 50 mg/kg per os
  Antiinflammatory relative potency to naproxen: 1.7
  Antiinflammatory relative potency to piroxicam: 0.8
Carrageenin paw edema; 100 mg/kg per os
  Antiinflammatory relative potency to naproxen: 2.4
  Antiinflammatory relative potency to piroxicam: 1.1
Carrageenin paw edema; [11]
  inhibition in vivo at 50 mg/kg: 36%
Carrageenin paw edema; [12]
  inhibition in vivo at 100 mg/kg: 50%
Mouse; in vivo
  LD 50, relative ratio to piroxicam: 2.0
In vivo [5]
  LD50: 720 mg/kg

## CCN(CC)CCNC(=O)c1nn(-c2cccc(F)c2)c2c1N(C)S(=O)(=O)c1ccccc1-2 [Compound I-20]
In vivo [1]
  LD50: 2220 mg/kg
Rat; per os
  LD 50, relative ratio to naproxen: 4.1
  LD 50, relative ratio to piroxicam: 8.2
In vivo [2]; 350 mg/kg/day
  mortality at 120 h: 0%
Rats [3]
  Subacute toxicity, relative ratio to naproxen: 7
  Subacute toxicity, relative ratio to piroxicam: 17
Rats [4]; [6]
  Average number of lesions per animal: 0
Rats [4]
  Gastrolesive effect, relative potency to naproxen: > 20
  Gastrolesive effect, relative potency to piroxicam: 100
pyresis; [7]
  Antipyretic relative potency to naproxen: 0.4
  Antipyretic relative potency to piroxicam: 0.5
  Reduction of the pyresis at hour 4: 0.45 °C
pyresis; [8]
  Antipyretic relative potency to naproxen: 0.7
  Antipyretic relative potency to piroxicam: 0.8
  Reduction of the pyresis at hour 4: 0.75 °C
Phenylquinone writhes; 50 mg/kg oral
  Analgesic relative potency to naproxen: 1.3
  Analgesic relative potency to piroxicam: 1.0
Phenylquinone writhes; 100 mg/kg oral
  Analgesic relative potency to naproxen: 2.2
  Analgesic relative potency to piroxicam: 1.6
Phenylquinone writhes; [9]
  inhibition in vivo at 50 mg/kg: 44%
Phenylquinone writhes; [10]
  inhibition in vivo at 100 mg/kg: 72%
Carrageenin paw edema; 50 mg/kg per os
  Antiinflammatory relative potency to naproxen: 0.7
  Antiinflammatory relative potency to piroxicam: 0.3
Carrageenin paw edema; 100 mg/kg per os
  Antiinflammatory relative potency to naproxen: 1.0
  Antiinflammatory relative potency to piroxicam: 0.5
Carrageenin paw edema; [11]
  inhibition in vivo at 50 mg/kg: 15%
Carrageenin paw edema; [12]
  inhibition in vivo at 100 mg/kg: 21%
Mouse; per os
  LD 50, relative ratio to naproxen: 1.3
  LD 50, relative ratio to piroxicam: 4.4
In vivo [5]
  LD50: 1600 mg/kg

## COc1ccc2cc([C@H](C)C(=O)O)ccc2c1 [Naproxen, naproxen, reference compound]
Rats [4]; 5 mg/kg
  Average number of lesions per animal: 0
Rats [4]; 7.5 mg/kg
  Average number of lesions per animal: 0.9
Rats [4]; rats
  Gastric ulcerogenicity (in words): considerable gastrolesive power
pyresis; 30 mg/g (so in the source) per os
  Reduction of the pyresis at hour 4: 1.12 °C
Phenylquinone writhes; Mus musculus, 30 mg/kg oral, 2 h before phenylquinone, 5-15 min, female mice
  inhibition in vivo at 30 mg/kg: 33%
Carrageenin paw edema; Rattus norvegicus, po, 4 h, 30 mg/kg per os, female rats, read-out: % inhibition of the edema after 4 hours
  inhibition in vivo at 30 mg/kg: 21%

Source: US4378358A, “Benzothiazinopyrazoles having pharmacological activity” (Mediolanum Farmaceutici s.r.l., priority 1980, dated 1983)
